Legend:
XC_3703 [1] = target: T1, XC_3703 (Xanthomonas campestris, UniProt Q4UQD0); assay: isothermal titration calorimetry; type: binding
T1 construct: full-length, synthesized gene in pET47b, E. coli BL21(DE3), N-terminal His6 tag cut by 3C protease

YajQ = target: T2, YajQ (Escherichia coli, UniProt P0A8E7); assay: biochemical; set-up: isothermal titration calorimetry of nucleotide binding to purified recombinant YajQ family protein
T2 construct: recombinant, N-terminal His6 tag cleaved with 3C protease
T2 sequence (P0A8E7 whole entry): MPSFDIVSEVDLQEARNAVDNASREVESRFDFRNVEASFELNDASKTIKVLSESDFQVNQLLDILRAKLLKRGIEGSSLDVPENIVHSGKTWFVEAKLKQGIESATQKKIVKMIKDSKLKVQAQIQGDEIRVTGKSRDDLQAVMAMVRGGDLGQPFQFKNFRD
Protocol: (§1) The ability of XC_3703 to bind different nucleotides including cyclic di-GMP was further examined using isothermal titration calorimetry (ITC) with the purified protein (see Materials and Methods ). The full-length XC_3703 protein bound cyclic di-GMP with high affinity with a K d of 2 µM (Figure 1B; Table S2). It appeared that binding was endothermic in nature, which is a characteristic of a binding mechanism that favours hydrogen bonding and hydrophobic interactions, [16]. […] The observed binding affinity is within the range of physiological cyclic di-GMP levels observed in Xcc and is similar to the binding affinity of a number of established cyclic di-GMP effector proteins. […] To examine whether cyclic di-GMP binding was a common feature of this family, recombinant YajQ-like proteins from various bacteria including Escherichia coli, Pseudomonas aeruginosa, Stenotrophomonas maltophilia, Bacillus cereus and Clostridium species were purified and their ability to bind different nucleotides was assessed. […] The DNA fragments encoding the proteins of interest were synthesized by Gene Oracle in pGOv4 and sub-cloned into pET47b or pLAFR3 before transformation into E. coli BL21 (DE3). Genomic regions are described in Table S7. BL21 (DE3) cells were grown in LB media and induced with 0.25 mM IPTG; protein overexpression was carried out at 37°C for 1 h. Purification was achieved by Ni^2+ affinity chromatography using the N-terminal His6 tag followed by tag cleavage using recombinant 3C protease.

Clocel_3875 = target: T3, Clocel_3875 (Clostridium cellulovorans, UniProt D9SKW9); assay: biochemical; set-up: isothermal titration calorimetry of nucleotide binding to purified recombinant YajQ family protein
T3 construct: recombinant, N-terminal His6 tag cleaved with 3C protease
T3 sequence (D9SKW9 entry or part of it): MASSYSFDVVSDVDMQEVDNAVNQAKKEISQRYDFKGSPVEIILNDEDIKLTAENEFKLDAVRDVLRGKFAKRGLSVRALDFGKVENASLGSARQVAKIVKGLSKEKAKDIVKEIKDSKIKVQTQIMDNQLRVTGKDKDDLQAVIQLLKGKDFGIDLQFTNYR
Protocol: as §1

Smlt4090 = target: T4, Smlt4090 (Stenotrophomonas maltophilia, UniProt B2FHW7); assay: isothermal titration calorimetry; type: binding
T4 construct: recombinant, synthesized gene in pET47b, E. coli BL21(DE3), N-terminal His6 tag cut by 3C protease
T4 sequence (B2FHW7 whole entry): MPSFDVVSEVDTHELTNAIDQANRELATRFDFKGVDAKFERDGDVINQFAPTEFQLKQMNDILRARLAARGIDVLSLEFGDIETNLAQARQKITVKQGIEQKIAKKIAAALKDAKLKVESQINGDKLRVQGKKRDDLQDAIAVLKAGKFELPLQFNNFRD
Excerpt: isothermal titration calorimetry on Smlt4090 | YajQ family proteins from P. aeruginosa (PA4395) and S. maltophilia (Smlt4090)

PA4395 = target: T5, PA4395 (Pseudomonas aeruginosa, UniProt Q9HW11); assay: isothermal titration calorimetry; type: binding
T5 construct: recombinant, synthesized gene in pET47b, E. coli BL21(DE3), N-terminal His6 tag cut by 3C protease; locus tag is of strain PAO1 (PA14 used in mice)
T5 sequence (Q9HW11 whole entry): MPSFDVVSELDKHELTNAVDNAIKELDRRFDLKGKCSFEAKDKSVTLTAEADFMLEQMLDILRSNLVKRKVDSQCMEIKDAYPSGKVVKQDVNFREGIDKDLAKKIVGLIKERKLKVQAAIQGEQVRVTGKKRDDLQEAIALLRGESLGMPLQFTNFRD
Excerpt: isothermal titration calorimetry on PA4395 | affinity for cyclic di-GMP binding was only seen in YajQ family proteins from P. aeruginosa (PA4395)

XC_3703 [2] = target: T1, XC_3703; assay: biochemical; set-up: isothermal titration calorimetry of nucleotide binding to purified recombinant YajQ family protein
Protocol: as §1

[3] = target: T6, XC_3703 (YajQ family) (Xanthomonas campestris pv. campestris 8004) (UniProt Q4UQD0); assay: EMSA
T6 sequence: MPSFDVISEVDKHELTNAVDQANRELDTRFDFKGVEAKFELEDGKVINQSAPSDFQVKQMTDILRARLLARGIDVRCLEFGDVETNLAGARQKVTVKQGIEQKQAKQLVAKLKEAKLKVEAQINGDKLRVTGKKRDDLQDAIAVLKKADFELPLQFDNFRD

| Compound | Kd (XC_3703 [1]; read-out: Kd) [µM] | Kd (YajQ) [µM] | Kd (Clocel_3875) [µM] | Kd (XC_3703 [1]) [µM] | other results |
| --- | --- | --- | --- | --- | --- |
| Nc1ncnc2c1ncn2[C@@H]1O[C@H](COP(=O)(O)OP(=O)(O)OP(=O)(O)O)[C@@H](O)[C@H]1O [ATP] | 3000 | 28.2 | 21.1 | – | – |
| Nc1nc2c(ncn2[C@@H]2O[C@H](COP(=O)(O)OP(=O)(O)OP(=O)(O)O)[C@@H](O)[C@H]2O)c(=O)[nH]1 [GTP] | 13000 | 34.3 | 31 | – | – |
| Nc1ncnc2c1ncn2[C@@H]1O[C@@H]2COP(=O)(O)O[C@H]3[C@@H](O)[C@H](n4cnc5c(N)ncnc54)O[C@@H]3COP(=O)(O)O[C@H]2[C@H]1O [cyclic di-AMP] | – | – | – | 900 | – |
| Nc1nc2c(ncn2[C@@H]2O[C@@H]3CO[P@](=O)(O)O[C@H]4[C@@H](O)[C@H](n5cnc6c(=O)[nH]c(N)nc65)O[C@@H]4CO[P@](=O)(O)O[C@H]3[C@H]2O)c(=O)[nH]1 [cyclic di-GMP] | – | – | – | 2 | Kd (Smlt4090): 7.91 µM; Kd (PA4395): 6.98 µM; Kd (XC_3703 [2]): 2.2 µM |
| GGCATCGAACCGGCCGCACGTTTCGCGGCTGTTGTGCAGTGAATACGTATGCACAGGGTCAATGCTGCGCCGCGATGCGCGCTTAGCATCACCGCGCGCCGCACGCCGTGGGGCGCGCTTTCCGGAACAGGGGCCGGAGGGCATTGCTGCATGCATCGCTGTGCGGGATGCGTGCGTCCACTGATCAGGAGACACACCCG (double strand) [aaeB promoter probe] | – | – | – | – | binding [3]: no binding |

— article PMC4199771, “Novel Cyclic di-GMP Effectors of the YajQ Protein Family Control Bacterial Virulence” (PLoS Pathogens, 2014)
